From patent US3961075A, “Ether-linked quaternary ammonium compositions” (Colgate-Palmolive Company, priority 1975, dated 1976)

Experiments:
Type in all cases: cell-based
[1] = tested on: S. aureus; assay: standard test tube serial dilution test, S. aureus; details: Staphylococcus aureus, broth serial dilution, read-out: Minimum Inhibitory Concentration
Protocol: (§1) The anti-microbial nature of the instant novel compounds was shown by a standard test tube serial dilution test in which an appropriate number of test tubes of broth containing decreasing concentrations of the test agent was innoculated with the test organism. After a suitable period of incubation, the tubes were examined for the presence or absence of growth. The activity of the test agent was the lowest concentration which inhibited the growth of the organism and is expressed as the minimal inhibitory concentration in ug/ml.

[2] = tested on: Str. mitis; assay: standard test tube serial dilution test, Str. mitis; details: Streptococcus mitis, broth serial dilution, read-out: Minimum Inhibitory Concentration
Protocol: as §1

[3] = tested on: C. albicans; assay: standard test tube serial dilution test, C. albicans; details: Candida albicans, broth serial dilution, read-out: Minimum Inhibitory Concentration
Protocol: as §1

[4] = tested on: P. ovale; assay: standard test tube serial dilution test, P. ovale; details: broth serial dilution, read-out: Minimum Inhibitory Concentration
Protocol: as §1

[5] = tested on: T. mentagrophytes; assay: standard test tube serial dilution test, T. mentagrophytes; details: Trichophyton mentagrophytes, broth serial dilution, read-out: Minimum Inhibitory Concentration
Protocol: as §1

[6] = tested on: Ps. aeruginosa; assay: standard test tube serial dilution test, Ps. aeruginosa; details: Pseudomonas aeruginosa, broth serial dilution, read-out: Minimum Inhibitory Concentration
Protocol: as §1

[7] = tested on: A. niger; assay: standard test tube serial dilution test, A. niger; details: Aspergillus niger, broth serial dilution, read-out: Minimum Inhibitory Concentration
Protocol: as §1

[8] = tested on: E. coli; assay: standard test tube serial dilution test, E. coli; details: Escherichia coli, broth serial dilution, read-out: Minimum Inhibitory Concentration
Protocol: as §1

## CCCCCCCCCCCC[N+](C)(C)CCOC12CC3CC(CC(C3)C1)C2 [C12 H25, 2-(1^1-adamantyloxy)ethyldimethyldodecyl ammonium bromide]
[1]
  MIC: 0.39 µg/mL
[2]
  MIC: 0.19 µg/mL
[3]
  MIC: 1.56 µg/mL
[4]
  MIC: > 50 µg/mL
[5]
  MIC: 3.12 µg/mL
[6]
  MIC: > 25 µg/mL
[7]
  MIC: 50 µg/mL
[8]
  MIC: 12.5 µg/mL

## CCCCCCCCCCCCCC[N+](C)(C)CCOC12CC3CC(CC(C3)C1)C2 [C14 H29, 2(1^1 -adamantyloxy)ethyldimethyltetradecylammonium bromide]
[1]
  MIC: 0.78 µg/mL
[2]
  MIC: 0.39 µg/mL
[3]
  MIC: 1.56 µg/mL
[4]
  MIC: > 50 µg/mL
[5]
  MIC: 6.25 µg/mL
[6]
  MIC: > 25 µg/mL
[7]
  MIC: 50 µg/mL
[8]
  MIC: 12.5 µg/mL
